# Test system: diet-induced obese mice
# Experiment: Weight loss study in diet-induced obese mice, oral administration
# Type: in vivo
# Conditions: C57BL/6NTac mice on 60% fat diet; 1.0 mg/kg orally in 10% gelucire in deionised water, once a day for 8 days
# Procedure: A weight loss study is conducted in obese mice. The mice in this study are not genetically obese, BUT prior to and during the study, obesity is induced by a high-fat diet. Twelve week-old C57BL/6NTac mice, are maintained on a 60% fat diet prior to and during the study, are separated into […], eight animals per group. Average body weight of the mice is taken at the start of the study.
# Each of six groups is orally administered 1.0 mg/kg of a compound disclosed herein in 10% gelucire in DEIONISED water. Each of these six groups is administered a different compound. One group is orally administered fumagillin at 1.0 mg/kg in 10% gelucire in deionised water, and one group is administered 10% gelucire in deionised water (vehicle). Mice receive administrations once a day for 8 days.
structure (smiles),measurement,value
CO[C@@H]1[C@H](OC(=O)/C=C/C=C/C=C/C=C/C(=O)O)CC[C@]2(CO2)[C@H]1[C@@]1(C)O[C@@H]1CC=C(C)C [fumagillin],body weight change over the course of the 8 days,weight over the course of the 8 days

# Reference: US20140107171A1, “Methods of Treating an Overweight or Obese Subject” (Zafgen, Inc., priority 2008, published 2014)
